Test system: L. amazonesis
Assay: Effects upon leishmaniasis-infected mice (shrinkage of skin foci)
Format: in vivo, BALB/c mice
Conditions: 30 mg/kg twice a week for 8 weeks; for Average focus shrinkage degree: before administration = 100
Text: L. amazonesis was inoculated to tail root portions of BALB/c mice to prepare L. amazonesis-infected mice, and the mice were used 6 week after the infection. These mice were divided into four groups as mentioned below, infected foci (tail root portions) were photographed with lapse of time, and the effects upon them were examined in terms of [by means of] shrinkage degrees of the skin foci. The shrinkage degree of the skin focus was found by measuring a major axis of ulcer or node. The magnitude before administration was taken as 100 and the magnitude 8 weeks after administration was calculated according to the following calculation formula. Group A (Control group) Only a solvent (55% ethanol-4.5% glucose liquid) was injected topically into a focus twice a week for 8 weeks. Group B (Control group) Only a solvent (55% ethanol-4.5% glucose liquid) was injected intraperitoneally twice a week for 8 weeks. Group C (Topically injected group) A solution in which the sodium salt of the compound in the present invention represented by the formula (1) was dissolved in the solvent was injected topically into a focus twice a week for 8weeks at a rate of 30 mg/kg. Group D (intraperitoneally injected group) A solution in which the sodium salt of the compound in the present invention represented by the formula (1) was dissolved in the solvent was injected intraperitoneally twice a week for 8 weeks at a rate of 30 mg/kg. [formula]

2-deoxy-2-[(3S)-(9-phenylnonanoyloxy)tetradecanoyl]amino-3-O-(9-phenylnonanoyl)-4-O-sulfo-α-D-glucopyranose
Average focus shrinkage degree (Group C: injected topically into focus, magnitude (major axis of ulcer or node) 8 weeks after administration, n = 7, solvent control Group A 220.5): 138.9 (n = 7)
Skin focus completely cured (number of mice) (Group C: topical injection, n = 7): completely cured with respect to three mice
Average focus shrinkage degree (Group D: injected intraperitoneally, magnitude 8 weeks after administration, n = 6, solvent control Group B 289.3): 178.5 (n = 6)

CCCCCCCCCCC[C@@H](CC(=O)N[C@@H]1[C@@H](OC(=O)CCCCCCCCc2ccccc2)[C@H](OS(=O)(=O)[O-])[C@@H](CO)O[C@@H]1O)OC(=O)CCCCCCCCc1ccccc1.[Na+] [the compound in the present invention, 2-deoxy-2-[(3S)-(9-phenylnonanoyloxy)tetradecanoyl]-amino-3-O-(9-phenylnonanoyl)-4-O-sulfo-α-D-glucopyranose]
Effect on focal infection of leishmaniasis-infected mice (in words) (conclusion from Table 1, topical or intraperitoneal): effectively shrunk the focal infection

Source: patent US6444648B1, “Leishmaniasis remedy containing glucopyranose derivative as the active ingredient” (University of the Ryukyu, priority 1997, dated 2002)
